Measurements from patent publication US20130184202A1, “Peptide Inhibitors and Methods of Use Thereof” (priority 2011, published 2013).

Assays:
RAW cells = assay: iNOS and IL-1β mRNA expression by RT-PCR after BAL treatment; type: cell-based; conditions: RAW cells treated with SNO-OE-BAL in the presence of the NF-κB inhibitor
Method: RAW cells were treated with BAL prepared from overexpressing mice, either with or without prior transnitrosation with L-SNOC.
RAW cells were treated with OE-BAL or SNO-OE-BAL in the presence and absence of the NF-κB inhibitor caffeic acid phenethyl ester (CAPE).

SP-D multimer = target: T1, SP-D multimer (Rattus norvegicus, UniProt P35248); assay: SP-D multimer disruption, native gel electrophoresis and Western blot; type: biochemical; conditions: for disruption of the SP-D multimer: RrSP-D, 25 mM, 37° C., 20 minutes, native gel
T1 sequence (P35248 20-374): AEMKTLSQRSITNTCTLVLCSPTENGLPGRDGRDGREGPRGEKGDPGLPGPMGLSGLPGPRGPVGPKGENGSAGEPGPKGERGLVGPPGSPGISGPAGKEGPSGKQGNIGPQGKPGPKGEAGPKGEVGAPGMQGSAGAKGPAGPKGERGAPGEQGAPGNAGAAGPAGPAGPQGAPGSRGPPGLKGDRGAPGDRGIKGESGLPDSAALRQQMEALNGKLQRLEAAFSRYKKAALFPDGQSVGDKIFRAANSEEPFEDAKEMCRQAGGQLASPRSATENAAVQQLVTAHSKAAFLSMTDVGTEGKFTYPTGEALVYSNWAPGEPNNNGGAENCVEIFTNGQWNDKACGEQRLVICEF

RrSP-D = target: T2, RrSP-D (Rattus norvegicus, UniProt P35248); assay: SP-D trimer/structure disruption, SDS-PAGE and Western blot; type: biochemical; conditions: for disruption of SP-D structure (specificity): 50 ng RrSP-D, equimolar concentration, non-reducing denaturing SDS-PAGE
T2 sequence (P35248 20-374): T1 sequence (P35248 20-374)
Method: FIG. 12A provides a hydrophobicity plot of the designed peptide CJ-1 (SEQ ID NO: 1). CJ-1 was directly derived from SP-D sequence within which cysteine residues are located in the hydrophobic pocket. RrSP-D (50 ng) was incubated with or without CJ-1 (10 mM) or DTT (10 mM) at 37° C. for 20 minutes (FIG. 12B). […] RrSP-D (50 ng) was incubated with different doses of CJ-1 (0.01-10 mM) at 37° C. for 20 minutes.
By matching the reduced cysteines within the peptide to those in the target protein one can specifically disrupt structure. Using 50 ng of RrSP-D the effect of an equimolar concentration of CJ-1, targeted peptide; CJ-2, a scrambled version of CJ-1 with no hydrophobic pocket; or L-cysteine was analyzed. Following incubation SP-D structure was assessed by non-reducing denaturing SDS-PAGE.

RAW 264.7 cells [1] = assay: Chemotactic activity, Boydin Chamber; type: cell-based; conditions: SNO-SP-D samples treated with 1 μM or 10 μM
Method: (§1) RrSP-D was incubated with 100 μM of nitric oxide for 30 minutes to generate SNO-SP-D (FIG. 14A). The resultant protein was incubated with CJ-1 (1 μM or 10 μM). The protein samples were subjected to Biotin-Switch analysis to determine SNO-SP-D content. Lane 1 untreated RrSP-D; Lane 2 NO-treated RrSP-D; Lane 3 NO-treated RrSP-D+1 μM CJ-1; Lane 4 NO-treated RrSP-D+10 μM CJ-1. […] The chemoattractive activity to RAW 264.7 cells was assayed using a Boydin Chamber.

SNO-SP-D = target: T3, SNO-SP-D (Rattus norvegicus, UniProt P35248); assay: Biotin-Switch analysis of SNO-SP-D content; type: biochemical; conditions: NO-treated RrSP-D incubated with 1 μM or 10 μM
T3 sequence (P35248 20-374): T1 sequence (P35248 20-374)
Method: as §1

RAW 264.7 cells [2] = assay: Real-time qPCR of pro-inflammatory mediator mRNA (IL-1β, iNOS, ptgs2, CCL2); type: cell-based; conditions: 10 μM, 3 hours, without LPS
Method: Raw 264.7 cells were incubated with or without CJ-1 (10 μM) or SNO-CJ-1 (10 μM) for 3 hours (FIG. 17A) or incubated with or without CJ-1 (10 μM) or SNO-CJ-1 (10 μM) for 20 minutes and treated with LPS (1 ng/mL) for an additional 3 hours (FIG. 17B). The cells were lysed and total RNA was isolated and subjected to real-time qPCR for mRNA expression of IL-1β, iNOS, ptgs2 and CCL2. SNO-CJ-1 inhibits mRNA expression of pro-inflammatory mediators.

HIV gp120 LAV = HIV gp120 LAV (Human immunodeficiency virus type 1 group M subtype B, UniProt P03377); conditions: preincubated, denatured, SDS PAGE, Coomassie blue
Method: Peptides were designed to disrupt HIV gp120 formation. […] HIV gp120 LAV preincubated without (lane 1) or with DTT (lane 2), L-cysteine (lane 3), CJ-3 (lane 4) CJ-4 (lane 5) or CJ-3 and CJ-4 (lane 6) was denatured and subjected to SDS PAGE gel electrophoresis. The resulted proteins were visualized by Coomassie blue staining (FIG. 15C).

HIV X4 strain NL4-3 = assay: HIV reverse transcriptase (RT) assay in supernatants of infected Jurkat T cells; type: cell-based; conditions: NL4-3 preincubated 1 hour at 37° C.; Jurkat T cells infected 16 hours; supernatants day 6 postinfection
Method: The HIV X4 strain NL4-3 was preincubated without (control) or with peptide CJ-2 which was a peptide with two cysteines in the hydrophilic domain, peptide CJ-3 which was derived from gp120, or peptide CJ-4 which was derived from gp41 for 1 hour at 37° C. at the concentrations indicated. The Jurkat T cells (0.5×10^6 cell/ml) were infected by NL4-3 (30 ng/ml) for 16 hours and washed. The supernatants at day 6 postinfection was collected and subjected to HIV reverse transcriptase (RT) assay. The data are shown represent the mean±SD of duplicate cultures (FIG. 15D).

Row | Molecule | disruption of the SP-D multimer (SP-D multimer) | disruption of SP-D structure (specificity) (RrSP-D) | disruption of the structure of HIV gp120 LAV (HIV gp120 LAV) | inhibition of HIV (RT activity in supernatants) (HIV X4 strain NL4-3) | also measured
1 | O=C(/C=C/c1ccc(O)c(O)c1)OCCc1ccccc1 [CAPE, caffeic acid phenethyl ester] | – | – | – | – | effect on SNO-OE-BAL mediated increase in iNOS expression (RAW cells): completely abrogated the increase in iNOS expression
2 | N[C@@H](CSN=O)C(=O)O [L-SNOC, L-S-nitroso-cysteine] | capable of disrupting the SP-D multimer at high concentration | – | – | – | disruption of native SP-D multimers (SP-D multimer; BAL from SP-D overexpressing mice or 0.2 μM recombinant SP-D treated with L-SNOC, native electrophoresis, Western blot): disruption of the native multimers to dodecamers and trimers
3 | N[C@@H](CS)C(=O)O [L-cysteine, reference compound] | capable of disrupting the SP-D multimer at high concentration | Only CJ-1 is capable of disrupting SP-D structure | – | – | –
4 | AEMKSLSQRSVPNTCTLVMCSPTE [CJ-1] | – | capable of disrupting SP-D structure | – | – | SNO-SP-D induced RAW 264.7 cell migration (RAW 264.7 cells [1]): inhibits the ability of SNO-SP-D to induce RAW 264.7 cell migration; SNO-SP-D content (S-nitrosothiol) (SNO-SP-D): depleted S-nitrosothiol from SNO-SP-D; induction of transcription of inflammatory genes (RAW 264.7 cells [2]): capable of inducing transcription of inflammatory genes within macrophages; disruption of SP-D, dose dependence (RrSP-D; RrSP-D 50 ng, 0.01-10 mM, 37° C., 20 minutes): disrupts SP-D in a dose-dependent manner; disruption of SP-D trimers (RrSP-D; RrSP-D 50 ng, 10 mM, 37° C., 20 minutes, SDS PAGE, Western blot): disrupts SP-D trimers
5 | LVWEDLRNLCLFSYRLLR [CJ-4, peptide derived from gp41] | – | – | disrupted the structure of HIV gp120 LAV | inhibited HIV | –
6 | VPVWKDAETTLFCASDAK [CJ-3, peptide derived from gp120] | – | – | disrupted the structure of HIV gp120 LAV | inhibited HIV | –
